This passage reports TGI and GI50 results from PubChem BioAssay (NCI).

Several values for one entry are separate records, joined by “and”; a condition that tells them apart may be missing. Equal values may be shown once.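 Test compounds were applied to cells in 96-well plates for 48 hours at 5 doses. At the GI50, growth is halved. TGI marks complete inhibition of growth.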 A value given as a limit tells only on which side of the number the result lay.

The test system of the first test is HL-60(TB) leukemia. Nature of the test: NCI-60 cell line screen, 48 h.
The molecule `CC[C@@H]1CC[C@@H]2[C@H](CC[C@]3(C)[C@@H](O)CC[C@@H]23)[C@H]1C(=O)O` yielded a TGI of more than 100 µM.
For `Nc1nc(Cl)cc(NCC2(CO)CC(CCc3ccccc3)C2)n1` (centres undefined), the TGI was more than 94.2 µM.
The same measure, in the same setting: in the case of `c1cc2nnc1SCCSCCSc1ccc(nn1)SCCSCCS2` it was more than 100 µM; in that of `COc1ccc(-c2c(C#N)c(S)n(C3OC(COC(C)=O)C(OC(C)=O)C(OC(C)=O)C3OC(C)=O)c(=O)c2C#N)cc1` (centres undefined), > 100 µM and 45.6 µM.
The molecule `c1sc(NC2=NCCO2)c2c1CCCC2` had a TGI of more than 100 µM.
On to `Cc1c(Cl)ccc2c(=O)c3cccc(CC(=O)O)c3oc12`, for which the TGI was more than 100 µM.
As for `CC(=O)C(CN1CCCCC1)C(c1ccccc1)c1c(O)c2ccccc2oc1=O` (centres undefined), the TGI was more than 100 µM.
The molecule `O=C(NS(=O)(=O)Nc1ccc(Cl)cc1)OCc1ccc(Cl)cc1Cl` displayed a TGI of 87.2 µM.

A further test has as its system MCF7 breast. Nature of the test: NCI-60 cell line screen, 48 h.
Take `COC(=O)C1(Cc2ccccc2)Cc2cc3c(cc2C1=O)CCC3` (centres undefined): the TGI was determined as 42.9 µM.
`COc1ccc(N2C(=O)C3c4[nH]c5ccc([N+](=O)[O-])cc5c4C4CCC(C(C)(C)C)CC4C3C2=O)cc1` (centres undefined) displayed a TGI of more than 100 µM.
The molecule `O=C(O)c1ccc(NC(c2ccccc2)c2ccc3cccnc3c2O)cc1` (centres undefined) came in with a TGI of more than 80.7 µM.
As to `COc1ccc(-c2c(C#N)c(N)n(C3OC(CO)C(O)C(O)C3O)c(=S)c2C#N)cc1` (centres undefined), the GI50 was > 100 µM and 38.4 µM; the TGI was more than 100 µM.
Molecule `CCOC(=O)c1sc2nc(SC)nc3c2c1N=CN3c1ccc(Br)cc1` returned a TGI of more than 100 µM.
Still for that read-out and setting: in the case of `CC[C@@H]1CC[C@@H]2[C@H](CC[C@]3(C)[C@@H](O)CC[C@@H]23)[C@H]1C(=O)O` it was more than 100 µM; in that of `Nc1nc(Cl)cc(NCC2(CO)CC(CCc3ccccc3)C2)n1` (centres undefined), more than 100 µM; in that of `c1cc2nnc1SCCSCCSc1ccc(nn1)SCCSCCS2`, more than 100 µM.
In turn, `COc1ccc(-c2c(C#N)c(S)n(C3OC(COC(C)=O)C(OC(C)=O)C(OC(C)=O)C3OC(C)=O)c(=O)c2C#N)cc1` (centres undefined) returned a TGI of more than 100 µM.
Same read-out and setting: to `c1sc(NC2=NCCO2)c2c1CCCC2` belongs more than 100 µM.
`Cc1c(Cl)ccc2c(=O)c3cccc(CC(=O)O)c3oc12`: the TGI is more than 100 µM.
`CC(=O)C(CN1CCCCC1)C(c1ccccc1)c1c(O)c2ccccc2oc1=O` (centres undefined) had a TGI of more than 100 µM.
As for `O=C(NS(=O)(=O)Nc1ccc(Cl)cc1)OCc1ccc(Cl)cc1Cl`, the TGI stood at 31.9 µM.

A further test deals with A549 NSCLC. Nature of the test: NCI-60 cell line screen, 48 h.
In turn, `COC(=O)C1(Cc2ccccc2)Cc2cc3c(cc2C1=O)CCC3` (centres undefined) returned a TGI of more than 100 µM.
Molecule `COc1ccc(N2C(=O)C3c4[nH]c5ccc([N+](=O)[O-])cc5c4C4CCC(C(C)(C)C)CC4C3C2=O)cc1` (centres undefined) returned a TGI of more than 100 µM.
Still for that read-out and setting: in the case of `O=C(O)c1ccc(NC(c2ccccc2)c2ccc3cccnc3c2O)cc1` (centres undefined) it was more than 100 µM.
Molecule `COc1ccc(-c2c(C#N)c(N)n(C3OC(CO)C(O)C(O)C3O)c(=S)c2C#N)cc1` (centres undefined) registered a TGI of more than 100 µM.
In turn, `CCOC(=O)c1sc2nc(SC)nc3c2c1N=CN3c1ccc(Br)cc1` displayed a TGI of more than 100 µM.
The same measure, in the same setting: to `CC[C@@H]1CC[C@@H]2[C@H](CC[C@]3(C)[C@@H](O)CC[C@@H]23)[C@H]1C(=O)O` belongs more than 100 µM.
In turn, `Nc1nc(Cl)cc(NCC2(CO)CC(CCc3ccccc3)C2)n1` (centres undefined) showed a TGI of more than 100 µM.
`c1cc2nnc1SCCSCCSc1ccc(nn1)SCCSCCS2` displayed a TGI of more than 100 µM.
As for `COc1ccc(-c2c(C#N)c(S)n(C3OC(COC(C)=O)C(OC(C)=O)C(OC(C)=O)C3OC(C)=O)c(=O)c2C#N)cc1` (centres undefined), the TGI was more than 100 µM.
On to `c1sc(NC2=NCCO2)c2c1CCCC2`, for which the TGI is more than 100 µM.
Still for that read-out and setting: to `Cc1c(Cl)ccc2c(=O)c3cccc(CC(=O)O)c3oc12` belongs more than 100 µM; to `CC(=O)C(CN1CCCCC1)C(c1ccccc1)c1c(O)c2ccccc2oc1=O` (centres undefined), more than 100 µM; to `O=C(NS(=O)(=O)Nc1ccc(Cl)cc1)OCc1ccc(Cl)cc1Cl`, 52.6 µM.

A further test deals with NCI-H23 lung. Nature of the test: NCI-60 cell line screen, 48 h.
`COC(=O)C1(Cc2ccccc2)Cc2cc3c(cc2C1=O)CCC3` (centres undefined) registered a TGI of more than 100 µM.
On the same count and under the same terms, to `COc1ccc(N2C(=O)C3c4[nH]c5ccc([N+](=O)[O-])cc5c4C4CCC(C(C)(C)C)CC4C3C2=O)cc1` (centres undefined) belongs 60.4 µM.
Take `O=C(O)c1ccc(NC(c2ccccc2)c2ccc3cccnc3c2O)cc1` (centres undefined): the TGI is more than 100 µM.
Take `COc1ccc(-c2c(C#N)c(N)n(C3OC(CO)C(O)C(O)C3O)c(=S)c2C#N)cc1` (centres undefined): the TGI is more than 100 µM.
The molecule `CCOC(=O)c1sc2nc(SC)nc3c2c1N=CN3c1ccc(Br)cc1` displayed a TGI of more than 100 µM.
Consider `CC[C@@H]1CC[C@@H]2[C@H](CC[C@]3(C)[C@@H](O)CC[C@@H]23)[C@H]1C(=O)O`, for which the TGI was more than 100 µM.
`Nc1nc(Cl)cc(NCC2(CO)CC(CCc3ccccc3)C2)n1` (centres undefined) returned a TGI of more than 100 µM.
`c1cc2nnc1SCCSCCSc1ccc(nn1)SCCSCCS2`: the TGI is more than 100 µM.
`COc1ccc(-c2c(C#N)c(S)n(C3OC(COC(C)=O)C(OC(C)=O)C(OC(C)=O)C3OC(C)=O)c(=O)c2C#N)cc1` (centres undefined) displayed a TGI of more than 100 µM.
Take `c1sc(NC2=NCCO2)c2c1CCCC2`: the TGI was more than 100 µM.
Take `Cc1c(Cl)ccc2c(=O)c3cccc(CC(=O)O)c3oc12`: the TGI is more than 100 µM.
With `CC(=O)C(CN1CCCCC1)C(c1ccccc1)c1c(O)c2ccccc2oc1=O` (centres undefined), the TGI was more than 100 µM.
On the same count and under the same terms, to `O=C(NS(=O)(=O)Nc1ccc(Cl)cc1)OCc1ccc(Cl)cc1Cl` belongs 52.3 µM.

In the next test the test system is SW-620 colon. Nature of the test: NCI-60 cell line screen, 48 h.
As to `COC(=O)C1(Cc2ccccc2)Cc2cc3c(cc2C1=O)CCC3` (centres undefined), the TGI is more than 100 µM.
Molecule `COc1ccc(N2C(=O)C3c4[nH]c5ccc([N+](=O)[O-])cc5c4C4CCC(C(C)(C)C)CC4C3C2=O)cc1` (centres undefined) yielded a TGI of more than 100 µM.
Still for that read-out and setting: in the case of `O=C(O)c1ccc(NC(c2ccccc2)c2ccc3cccnc3c2O)cc1` (centres undefined) it was more than 55.8 µM.
In the case of `COc1ccc(-c2c(C#N)c(N)n(C3OC(CO)C(O)C(O)C3O)c(=S)c2C#N)cc1` (centres undefined), the TGI is more than 100 µM.
In turn, `CCOC(=O)c1sc2nc(SC)nc3c2c1N=CN3c1ccc(Br)cc1` showed a TGI of more than 100 µM.
`CC[C@@H]1CC[C@@H]2[C@H](CC[C@]3(C)[C@@H](O)CC[C@@H]23)[C@H]1C(=O)O` registered a TGI of more than 100 µM.
`Nc1nc(Cl)cc(NCC2(CO)CC(CCc3ccccc3)C2)n1` (centres undefined) returned a TGI of more than 100 µM.
`c1cc2nnc1SCCSCCSc1ccc(nn1)SCCSCCS2` displayed a TGI of more than 100 µM.
The molecule `COc1ccc(-c2c(C#N)c(S)n(C3OC(COC(C)=O)C(OC(C)=O)C(OC(C)=O)C3OC(C)=O)c(=O)c2C#N)cc1` (centres undefined) yielded a TGI of more than 100 µM.
`c1sc(NC2=NCCO2)c2c1CCCC2` showed a TGI of more than 100 µM.
With `Cc1c(Cl)ccc2c(=O)c3cccc(CC(=O)O)c3oc12`, the TGI is more than 100 µM.
In turn, `CC(=O)C(CN1CCCCC1)C(c1ccccc1)c1c(O)c2ccccc2oc1=O` (centres undefined) displayed a TGI of more than 100 µM.
The molecule `O=C(NS(=O)(=O)Nc1ccc(Cl)cc1)OCc1ccc(Cl)cc1Cl` displayed a TGI of more than 100 µM.

A further test has as its system HCC-2998 colon. The test is described as follows: NCI-60 cell line screen, 48 h.
Molecule `COC(=O)C1(Cc2ccccc2)Cc2cc3c(cc2C1=O)CCC3` (centres undefined) yielded a TGI of 9.64 µM.
The molecule `COc1ccc(N2C(=O)C3c4[nH]c5ccc([N+](=O)[O-])cc5c4C4CCC(C(C)(C)C)CC4C3C2=O)cc1` (centres undefined) displayed a TGI of more than 100 µM.
`O=C(O)c1ccc(NC(c2ccccc2)c2ccc3cccnc3c2O)cc1` (centres undefined): the TGI is more than 74.8 µM.
Turning to `COc1ccc(-c2c(C#N)c(N)n(C3OC(CO)C(O)C(O)C3O)c(=S)c2C#N)cc1` (centres undefined), the TGI was more than 100 µM.
`CCOC(=O)c1sc2nc(SC)nc3c2c1N=CN3c1ccc(Br)cc1` showed a TGI of more than 100 µM.
`CC[C@@H]1CC[C@@H]2[C@H](CC[C@]3(C)[C@@H](O)CC[C@@H]23)[C@H]1C(=O)O` gave a TGI of more than 100 µM.
The same measure, in the same setting: to `Nc1nc(Cl)cc(NCC2(CO)CC(CCc3ccccc3)C2)n1` (centres undefined) belongs more than 100 µM; to `c1cc2nnc1SCCSCCSc1ccc(nn1)SCCSCCS2`, more than 100 µM; to `COc1ccc(-c2c(C#N)c(S)n(C3OC(COC(C)=O)C(OC(C)=O)C(OC(C)=O)C3OC(C)=O)c(=O)c2C#N)cc1` (centres undefined), 98.9 µM and 64.6 µM.
On the same count and under the same terms, in the case of `c1sc(NC2=NCCO2)c2c1CCCC2` it was more than 100 µM; in that of `Cc1c(Cl)ccc2c(=O)c3cccc(CC(=O)O)c3oc12`, more than 100 µM; in that of `CC(=O)C(CN1CCCCC1)C(c1ccccc1)c1c(O)c2ccccc2oc1=O` (centres undefined), more than 100 µM.
For `O=C(NS(=O)(=O)Nc1ccc(Cl)cc1)OCc1ccc(Cl)cc1Cl`, the TGI was found to be 30.9 µM.
